Assay results taken from publication PMC8985489 (Alzheimer's & Dementia : Translational Research & Clinical …, 2022).

What was measured:
biotinylated Aβ1-42 = biotinylated Aβ1-42 (Homo sapiens, UniProt P05067); test: Aβ anti-oligomerization assay; assay type: biochemical
Human Recombinant IDO-1 = Human Recombinant IDO-1 (Homo sapiens, UniProt P14902); test: HR-IDO-1 enzymatic inhibition assay; assay type: biochemical
[1] = target: INF-γ-induced IDO-1 activity (Homo sapiens, UniProt P14902); test: INF-γ-induced IDO-1 activity; assay type: cell-based
Sequence of INF-γ-induced IDO-1 activity (P14902 whole entry): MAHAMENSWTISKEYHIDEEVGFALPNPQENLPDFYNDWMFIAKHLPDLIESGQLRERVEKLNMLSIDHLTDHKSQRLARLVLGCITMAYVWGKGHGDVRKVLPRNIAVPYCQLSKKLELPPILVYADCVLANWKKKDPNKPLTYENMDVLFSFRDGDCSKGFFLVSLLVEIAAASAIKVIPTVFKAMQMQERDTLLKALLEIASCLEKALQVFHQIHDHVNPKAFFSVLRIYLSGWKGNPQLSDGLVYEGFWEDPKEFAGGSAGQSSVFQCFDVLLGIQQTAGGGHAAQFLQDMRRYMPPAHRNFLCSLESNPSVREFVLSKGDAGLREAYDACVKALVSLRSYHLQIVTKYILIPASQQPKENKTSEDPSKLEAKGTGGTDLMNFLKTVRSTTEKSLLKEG

Aβ1-40 [2] = target: T1, Aβ1-40 (Homo sapiens, UniProt P05067); test: Thioflavin T; assay type: biochemical
T1 sequence (P05067 672-711 limits assumed): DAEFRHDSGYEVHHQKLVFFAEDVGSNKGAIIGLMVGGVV

Aβ1-40 [3] = target: T1, Aβ1-40; test: Circular dichroism; assay type: biochemical
[4] = tested on: IL-1β production and release from microglia; test: IL-1β production and release from microglia; assay type: cell-based; details: at 50 and 100 μM
IDO-1 = details: cited from earlier work
[5] = tested on: SK-N-AS neuroblastoma cells; test: Aβ production in mammalian cells; assay type: cell-based, human; details: SK-N-AS incubated with 1 μg/ml, within 3 h

Sequence of biotinylated Aβ1-42 (P05067 672-713): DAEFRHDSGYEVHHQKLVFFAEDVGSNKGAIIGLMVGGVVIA
Sequence of Human Recombinant IDO-1 (P14902 whole entry): as the sequence (P14902 whole entry) above

Row | Compound | Aβ anti-aggregant activity in ThT assay (Aβ1-40 [2]) | Aβ anti-aggregant activity in CD assay (Aβ1-40 [3]) | also measured
1 | COc1ccc2[nH]cc(/C=C/c3ccc(O)cc3)c2c1 [4b, (E)‐4‐(2‐[5‐methoxy‐1H‐indol‐3‐yl]vinyl)phenol] | – | – | IC50 (biotinylated Aβ1-42): 6.5 µM; IC50 (Human Recombinant IDO-1): 2.8 µM; IC50 [1]: 10.8 µM
2 | O=C(O)/C=C/c1ccc(O)cc1 [4‐coumarate] | exhibited Aβ anti‐aggregant activities | exhibited Aβ anti‐aggregant activities | –
3 | NCCc1c[nH]c2ccc(O)cc12 [5‐hydroxytryptamine] | – | – | IL-1β production and release from microglia [4]: modulated
4 | O=C(O)/C=C/c1ccc(O)c(O)c1 [caffeiate] | exhibited Aβ anti‐aggregant activities | exhibited Aβ anti‐aggregant activities | –
5 | COc1cc(/C=C/C(=O)O)ccc1O [ferulate] | exhibited Aβ anti‐aggregant activities | exhibited Aβ anti‐aggregant activities | IDO-1 enzymatic activity (IDO-1): shown to inhibit IDO‐1 enzymatic activity
6 | Oc1ccc(/C=C/c2cc(O)cc(O)c2)cc1 [resveratrol] | exhibited Aβ anti‐aggregant activities | exhibited Aβ anti‐aggregant activities | –
7 | O=C(O)c1ccccc1O [salicylate] | exhibited Aβ anti‐aggregant activities | exhibited Aβ anti‐aggregant activities | –
8 | COc1cc(/C=C/C(=O)O)cc(OC)c1O [sinapate] | exhibited Aβ anti‐aggregant activities | exhibited Aβ anti‐aggregant activities | –
9 | N[C@@H](Cc1c[nH]c2ccccc12)C(=O)O [tryptophan] | – | – | activity in initial screen against Aβ aggregation (biotinylated Aβ1-42; biotinylated Aβ1-42 anti-oligomerization screen): inactive; activity in initial screen against Aβ aggregation (Aβ1-40 [2]; kinetic ThT Aβ1-40 anti-aggregation screen): inactive
10 | lipopolysaccharide [LPS] | – | – | Aβ concentrations in the cell lysate [5]: 800 pg/mL
11 | lipoteichoic acid [LTA] | – | – | Aβ concentrations in the cell lysate [5]: 800 pg/mL
12 | tannate | exhibited Aβ anti‐aggregant activities | exhibited Aβ anti‐aggregant activities | –
